From PubChem BioAssay (NCI)
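All cell lines were grown in 96-well plates and treated with compound for 48 hours. GI50 marks 50% less growth. TGI denotes the concentration required for complete inhibition of growth.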

Tests used:
Assay in all cases: growth of human tumour cells (NCI), 48 h
SF-295 CNS = system: SF-295 CNS
SNB-75 CNS = system: SNB-75 CNS
A549 NSCLC = system: A549 NSCLC
CAKI-1 renal = system: CAKI-1 renal
SF-268 CNS = system: SF-268 CNS
IGROV1 ovarian = system: IGROV1 ovarian
HT29 colon = system: HT29 colon
NCI-H23 lung = system: NCI-H23 lung

Row | SMILES | TGI (SF-295 CNS) [µM] | TGI (SNB-75 CNS) [µM] | TGI (A549 NSCLC) [µM] | TGI (CAKI-1 renal) [µM] | TGI (SF-268 CNS) [µM] | TGI (IGROV1 ovarian) [µM] | TGI (HT29 colon) [µM] | TGI (NCI-H23 lung) [µM] | GI50 (SF-295 CNS) [µM] | GI50 (A549 NSCLC) [µM] | GI50 (CAKI-1 renal) [µM] | GI50 (SF-268 CNS) [µM] | GI50 (IGROV1 ovarian) [µM] | GI50 (HT29 colon) [µM] | GI50 (NCI-H23 lung) [µM] | GI50 (SNB-75 CNS) [µM]
1 | O=C(O)c1ccc([N+](=O)[O-])c2c(=O)c3ccccc3[nH]c12 | > 100 | > 100 | > 100 | > 100 | > 100 | > 100 | > 100 | – | – | – | – | – | – | – | – | –
2 | CCCN(CCC)C(=O)Cc1c2n(c3ccccc13)Cc1ccccc1-2 | > 100 | > 100 | > 100 | > 100 | > 100 | – | > 100 | > 100 | – | – | – | – | – | – | – | –
3 | O=C(Nc1nccs1)c1cc(C2=CC=CC([N+](=O)[O-])C=C2)nc(=S)[nH]1 (stereo not given) | > 100 | > 100 | > 100 | > 100 | > 100 | > 100 | > 100 | > 100 | – | – | – | – | – | – | – | –
4 | Cc1nn2c(/C=C3/C(=O)Nc4ccccc43)c(-c3ccc(Cl)cc3)nc2s1 | 31.8 | – | > 50 | > 50 | > 50 | > 50 | 27 | – | 10.3 | 16.2 | 13.3 | 19.9 | 39.1 | 11.9 | – | –
5 | CCCC(=O)N[C@@H](Cc1cc(I)c(O)c(I)c1)C(=O)NCCCNCCCCNCCCNC(=O)[C@@H](N)CCCN=C(N)N | – | – | > 100 | – | – | > 100 | > 100 | > 100 | – | – | – | – | – | – | – | –
6 | COc1ccc2nc(NC(=O)C(=O)CC(=O)c3ccc(Cl)cc3)sc2c1 | > 100 | 99.1 | > 100 | > 100 | > 100 | > 100 | > 100 | > 100 | – | – | – | – | – | – | – | –
7 | COC1=C(C(=O)OC(C)(C)C)[C@]2(C)C(C(=O)OC(C)(C)C)C(OC)=C(C(=O)OC(C)(C)C)[C@]2(C)C1C(=O)OC(C)(C)C (stereo not given in full) | > 100 | > 100 | > 100 | > 100 | > 100 | > 100 | > 100 | > 100 | – | – | – | – | – | – | – | –
8 | COc1ccc(C=NC23CC4CC(CC(C4)C2)C3)cc1 | > 100 | > 100 | > 100 | > 100 | > 100 | > 100 | > 100 | > 100 | – | – | – | – | – | – | – | –
9 | Cc1cccc(C)c1NC(=O)C(=O)CC(=O)CO | > 100 | > 100 | > 100 | > 100 | > 100 | > 100 | > 100 | > 100 | – | – | – | – | – | – | – | –
10 | CCN(CC)C(=S)N/N=C(\C)c1ccccc1O | > 100 | > 100 | 43.4 | 55.3 | > 100 | > 100 | 48 | > 100 | – | – | – | – | – | – | – | –
11 | CC(=S)NNC(=O)c1ccncc1 | > 100 | > 100 | > 100 | > 100 | > 100 | > 100 | > 100 | > 100 | – | – | – | – | – | – | – | –
12 | O=C(c1ccc(NCN2C(=O)CCC2=O)cc1)c1ccc(NCN2C(=O)CCC2=O)cc1 | > 100 | – | > 100 | – | > 100 | > 100 | > 100 | > 100 | – | – | – | – | – | – | – | –
13 | CNS(=O)(=O)NN(C)S(=O)(=O)c1ccc(Br)cc1 | > 100 | > 100 | > 100 | > 100 | – | > 100 | > 100 | > 100 | – | – | – | – | – | – | – | –
14 | O[C@]12CCCC[C@H]1CCC2 | > 100 | > 100 | > 100 | > 100 | > 100 | > 100 | > 100 | > 100 | – | – | – | – | – | – | – | –
15 | CC(=O)O[C@@H]1CC(C)C2CC2C2=C(C(O)OC2O)[C@@H]1C(C)CCC=C(C)C (stereo not given in full) | – | 76.1 | 51.7 | 58.3 | 65.5 | 51.1 | 35.5 | 55.4 | – | – | – | – | – | – | – | –
16 | COc1ccc(/C=C2\CNC/C(=C\c3ccc(OC)cc3)C2=O)cc1 | > 100 | > 100 | > 100 | 81.2 | 79.2 | > 100 | > 100 | 60.1 | – | – | – | – | – | – | – | –
17 | N#CC1(c2nc3ccccc3o2)C(=O)C(=O)N(c2ccc(Cl)c(Cl)c2)C(=O)C1=O | > 100 | > 100 | > 100 | > 100 | > 100 | – | > 100 | > 100 | – | – | – | – | – | – | – | –
18 | CCCCC(=O)[O-].N.N.N.N.N.[Co+3].[O-][Cl+3]([O-])([O-])[O-] | > 100 | > 100 | > 100 | – | > 100 | > 100 | > 100 | > 100 | > 100 | > 100 | – | > 100 | > 100 | > 100 | > 100 | 49.3
19 | CC[O-].CC[O-].O=Nc1ccc2cc([O-])ccc2c1.O=Nc1ccc2cc([O-])ccc2c1.[Ti+4] | 10.5 | – | 4.85 | 12.2 | 5.78 | – | – | 3.19 | 1.8 | 2.14 | 3.76 | 2.29 | – | – | 1.46 | –
20 | Cc1ccc(S(=O)(=O)OCC23CCC(C4CC42)C2CC23)cc1 (stereo not given) | > 100 | – | > 100 | > 100 | > 100 | > 100 | > 100 | > 100 | – | – | – | – | – | – | – | –
